# Measurements from patent US20190336555A1, “SYNERGISTIC DIETARY SUPPLEMENT COMPOSITIONS FOR IMPROVING BRAIN HEALTH” (LAILA NUTRACEUTICALS, priority 2016, published 2019).
# Counter-ions that a name gives are not always drawn.
# Test system: scopolamine induced memory impairment in Sprague Dawley rats
# Test: Scopolamine induced memory impairment model, Morris Water Maze
# Format: in vivo
# Conditions: oral, 4 days; LN16026F3 100 mg/kg, Donepezil 10 mg/kg; vs Scopolamine group
# Procedure: Twenty four healthy male Sprague Dawley rats were randomized in to four groups. Animals of groups 1 and 2 were treated daily with vehicle (0.5% sodium CMC in water); group 3 with LN16026F3 (100 mg/kg) and group 4 with Donepezil Hydrochloride Monohydrate (10 mg/kg). Dementia was induced by injecting Scopolamine Hydrobromide (0.2 mg/kg) subcutaneously to G2, G3 & G4 groups. G1 group received only 1 mL/kg of normal saline (0.9% w/v sodium chloride) via subcutaneous route.
# The experiment consists of 4 days of acquisition trials and one probe trial on day 5 i.e. the day after the completion of acquisition trails. Rats were allowed to swim for 120 seconds of 4 trials per day during acquisition trial in water maze to find the hidden platform. Each rat received 4 days of acquisition trials and one probe trial of 180 seconds on day 5. The movement of the animals was tracked by the SMART video tracking system. Memory retention was assessed on day 5 in which each animal received a single 180 seconds probe trial without platform in the pool. Dopamine levels were measured in tissue from hippocampal region of the brain using Elisa kit.
smiles,measurement,value
"COc1cc2c(cc1OC)C(=O)C(CC1CCN(Cc3ccccc3)CC1)C2 (stereo not shown) [Donepezil, Donepezil Hydrochloride Monohydrate]","Target latency, Acquisition Trial",reduction in target latency
